Results as given in PMC9558223, “Staphylococcus aureus is able to generate resistance to novel lipoglycopeptide antibiotic gausemycin A” (Frontiers in Microbiology, 2022).
≈ marks a conversion by molar mass, not a printed value. Like-named read-outs stand apart in the source and are kept apart here. Where no end group is shown, it is not given here.

Experiments:
S. aureus 5812R [1] = assay: microbe, parasite or virus in culture; format: cell-based, Staphylococcus aureus; settings: 24 h; for MIC: Staphylococcus aureus, 5812R, read-out: MIC alone
Protocol: The effect of gausemycin A in combination with other antibiotics was evaluated using the checkerboard technique with modifications (Nwabor et al., [2021]). Briefly, 80 μL of diluted bacterial suspension (10^6 CFU/mL) was added to wells containing 10 μL of sub-inhibitory concentrations of gausemycin A and 10 μL of sub-inhibitory concentrations of conventional antibiotics. The plates were incubated for 24 h at 37°C. The effects of the antimicrobial combination were defined according to the fractional inhibitory concentration index (FICI). The ΣFICs were calculated as follows:
where FIC A is the MIC of drug A in the combination/MIC of drug A alone; and FIC B is the MIC of drug B in the combination/MIC of drug B alone. The result was interpreted as FIC ≤ 0.5 = Synergism, FIC > 0.5 to 1 = additivity, FIC >1 to 2 = indifference, and FIC >2 antagonism.

S. aureus FDA209P [2] = assay: microbe, parasite or virus in culture; format: cell-based, Staphylococcus aureus; settings: broth microdilution (CLSI), 10^6 CFU/ml, 24 h, 37 °C, absorbance at 600 nm
Protocol: (§1) Minimal inhibitory concentration (MIC) was determined as previously described in Fuchs et al. ([2000]), following the Clinical and Laboratory Standards Institute (CLSI) guidelines for broth microdilution MIC assay. The bacteria were incubated in a 96-well microtiter plate (Eppendorf, Germany) containing 90 μL of inoculum prepared in growth media at 10^6 CFU/ml with 10 μL of twofold dilutions of the antibiotics. The results were evaluated after 24 h of cultivation at 37 °C. The bacterial growth was assessed by scanning the absorbance data at 600 nm obtained by spectrophotometer (Multiscan GO, Thermo Fisher Scientific, US).

S. aureus 5812R [3] = assay: microbe, parasite or virus in culture; format: cell-based, Staphylococcus aureus; settings: for MIC: 24 h; for Cross-resistance of S. aureus 5812R: susceptibility testing of gausemycin A-resistant strain; for Change of MIC / resistance of S. aureus 5812R compared to parent strain S. aureus FDA209P: ratio of MIC for 5812R and FDA209P
Protocol: as §1

S. aureus FDA209P [4] = assay: Serial passaging in increasing concentrations of antimicrobials; format: cell-based, Staphylococcus aureus; settings: for The highest concentration of antibiotic allowing growth: Mueller-Hinton II broth (CaCl2 50 mg/L), 37 °C, 24 h
Protocol: Gausemycin A-resistant variant was obtained by serial passaging as described previously (Pollard et al., [2012]). Isolated colonies of S. aureus FDA209P were inoculated into Mueller-Hinton II broth (CaCl2 50 mg/L) containing twofold dilutions of gausemycin A. The cultures were incubated at 37 °C with aeration for 24 h. After incubation, bacterial cells growing at the highest concentration of gausemycin A (below the MIC) were harvested and used for the next passage. The process was repeated for 20 passages. The dynamic of the developing resistance to gausemycin A was evaluated in comparison with daptomycin and ramoplanin. The experiments were performed in two independent series on separate days with three technical replicates each.

[5] = system: biofilm-embedded staphylococcal cells; settings: ref Vasilchenko et al., 2020; cited from earlier work
Description: These lipoglycopeptides were firstly described in 2016 (Lapchinskaya et al., [2016]), and consequently named gausemycins A and B (Tyurin et al., [2021]). Gausemycin A is a macrocyclic peptide containing 14 amino acids, where tyrosine is glycosylated with arabinose, which makes gausemycin A unique among natural peptide antibiotics (Tyurin et al., [2021]). The closest structurally related compounds are depsipeptides (daptomycin, taromycins, and cadazides) and cyclopeptides ( ...

[6] = Staphylococcus aureus, read-out: MIC
[7] = S. aureus 5812R, broth microdilution (CLSI), 10^6 CFU/ml, 37 °C, absorbance at 600 nm

## CC1(C)S[C@@H]2[C@H](NC(=O)[C@H](N)c3ccccc3)C(=O)N2[C@H]1C(=O)O [Ampicillin]
S. aureus 5812R [1]; S. aureus 5812R, combination Amp + GauA, checkerboard, 37 °C
  MIC of Amp in combination: 0.63 µg/mL
S. aureus 5812R [1]
  MIC: 1.25 µg/mL
S. aureus FDA209P [2]; [6]
  MIC: 0.16 µg/mL (≈ 0.458 µM)
S. aureus 5812R [3]; Staphylococcus aureus, 5812R
  MIC: 1.25 µg/mL (≈ 3.58 µM)

## Cc1nnc(SCC2=C(C(=O)O)N3C(=O)[C@@H](NC(=O)Cn4cnnn4)[C@H]3SC2)s1 [Cefazolin]
S. aureus FDA209P [2]; [6]
  MIC: 0.2 µg/mL (≈ 0.44 µM)
S. aureus 5812R [3]; Staphylococcus aureus, 5812R
  MIC: 0.4 µg/mL (≈ 0.88 µM)
S. aureus 5812R [3]
  Cross-resistance of S. aureus 5812R: cross-resistance

## O=C(O)c1cn(C2CC2)c2cc(N3CCNCC3)c(F)cc2c1=O [Ciprofloxacin]
S. aureus 5812R [1]; S. aureus 5812R, combination Cip+ GauA, checkerboard, 37 °C
  MIC of Cip in combination: 0.18 µg/mL

## CCCCCCCCCC(=O)N[C@@H](Cc1c[nH]c2ccccc12)C(=O)N[C@H](CC(N)=O)C(=O)N[C@@H](CC(=O)O)C(=O)N[C@@H]1C(=O)NCC(=O)N[C@@H](CCCN)C(=O)N[C@@H](CC(=O)O)C(=O)N[C@H](C)C(=O)N[C@@H](CC(=O)O)C(=O)NCC(=O)N[C@H](CO)C(=O)N[C@@H]([C@H](C)CC(=O)O)C(=O)N[C@@H](CC(=O)c2ccccc2N)C(=O)O[C@@H]1C [Daptomycin]
S. aureus 5812R [1]; S. aureus 5812R, single antibiotic, 10^6 CFU/mL, 37 °C
  MIC alone: 5.0 µg/mL
S. aureus FDA209P [4]; passage 1
  The highest concentration of antibiotic allowing growth: 1.25 µg/mL
S. aureus FDA209P [4]; passage 2
  The highest concentration of antibiotic allowing growth: 1.25 µg/mL
S. aureus FDA209P [4]; passage 3
  The highest concentration of antibiotic allowing growth: 1.25 µg/mL
S. aureus FDA209P [4]; passage 4
  The highest concentration of antibiotic allowing growth: 1.25 µg/mL
S. aureus FDA209P [4]; passage 5
  The highest concentration of antibiotic allowing growth: 1.25 µg/mL
S. aureus FDA209P [4]; passage 6
  The highest concentration of antibiotic allowing growth: 1.25 µg/mL
S. aureus FDA209P [4]; passage 7
  The highest concentration of antibiotic allowing growth: 1.25 µg/mL
S. aureus FDA209P [4]; passage 8
  The highest concentration of antibiotic allowing growth: 1.25 µg/mL
S. aureus FDA209P [4]; passage 9
  The highest concentration of antibiotic allowing growth: 1.25 µg/mL
S. aureus FDA209P [4]; passage 10
  The highest concentration of antibiotic allowing growth: 1.25 µg/mL
S. aureus FDA209P [4]; passage 11
  The highest concentration of antibiotic allowing growth: 1.25 µg/mL
S. aureus FDA209P [4]; passage 12
  The highest concentration of antibiotic allowing growth: 2.50 µg/mL
S. aureus FDA209P [4]; passage 13
  The highest concentration of antibiotic allowing growth: 2.50 µg/mL
S. aureus FDA209P [4]; passage 14
  The highest concentration of antibiotic allowing growth: 2.50 µg/mL
S. aureus FDA209P [4]; passage 15
  The highest concentration of antibiotic allowing growth: 2.50 µg/mL
S. aureus FDA209P [4]; passage 16
  The highest concentration of antibiotic allowing growth: 2.50 µg/mL
S. aureus FDA209P [4]; passage 17
  The highest concentration of antibiotic allowing growth: 2.50 µg/mL
S. aureus FDA209P [4]; passage 18
  The highest concentration of antibiotic allowing growth: 2.50 µg/mL
S. aureus FDA209P [4]; passage 19
  The highest concentration of antibiotic allowing growth: 2.50 µg/mL
S. aureus FDA209P [4]; passage 20
  The highest concentration of antibiotic allowing growth: 5.0 µg/mL
[5]
  Inhibition of biofilm-embedded staphylococcal cells: inactive
S. aureus FDA209P [2]
  MIC: 1.25 µg/mL (≈ 0.771 µM)
S. aureus 5812R [3]; [7]
  MIC: 5.0 µg/mL (≈ 3.09 µM)
S. aureus 5812R [3]
  Change of MIC / resistance of S. aureus 5812R compared to parent strain S. aureus FDA209P: 4 fold
  Cross-resistance of S. aureus 5812R: cross-resistance

## CNC(C)C1CCC(N)C(OC2C(N)CC(N)C(OC3OCC(C)(O)C(NC)C3O)C2O)O1 (stereo not shown) [Gentamicin]
S. aureus 5812R [1]; S. aureus 5812R, combination Gen+ GauA, checkerboard, 37 °C
  MIC of Gen in combination: 0.75 µg/mL
S. aureus 5812R [1]
  MIC: 1.56 µg/mL
S. aureus FDA209P [2]; [6]
  MIC: 0.2 µg/mL (≈ 0.419 µM)
S. aureus 5812R [3]; Staphylococcus aureus, 5812R
  MIC: 1.56 µg/mL (≈ 3.27 µM)
S. aureus 5812R [3]
  Change of MIC / resistance of S. aureus 5812R compared to parent strain S. aureus FDA209P: 7.8 fold
  Cross-resistance of S. aureus 5812R: cross-resistance

## CN(C)[C@@H]1C(O)=C(C(N)=O)C(=O)[C@@]2(O)C(O)=C3C(=O)c4c(O)cccc4[C@@](C)(O)[C@H]3C[C@@H]12 [Tetracycline]
S. aureus FDA209P [2]; [6]
  MIC: 0.47 µg/mL (≈ 1.06 µM)
S. aureus 5812R [3]; Staphylococcus aureus, 5812R
  MIC: 0.94 µg/mL (≈ 2.12 µM)
S. aureus 5812R [3]
  Cross-resistance of S. aureus 5812R: cross-resistance

## CN[C@H](CC(C)C)C(=O)N[C@H]1C(=O)N[C@@H](CC(N)=O)C(=O)N[C@H]2C(=O)N[C@H]3C(=O)N[C@H](C(=O)N[C@H](C(=O)O)c4cc(O)cc(O)c4-c4cc3ccc4O)[C@H](O)c3ccc(c(Cl)c3)Oc3cc2cc(c3O[C@@H]2O[C@H](CO)[C@@H](O)[C@H](O)[C@H]2O[C@H]2C[C@](C)(N)[C@H](O)[C@H](C)O2)Oc2ccc(cc2Cl)[C@H]1O [Vancomycin]
S. aureus FDA209P [2]
  MIC: 0.78 µg/mL (≈ 0.538 µM)
S. aureus 5812R [3]; [7]
  MIC: 0.78 µg/mL (≈ 0.538 µM)
S. aureus 5812R [3]
  Change of MIC / resistance of S. aureus 5812R compared to parent strain S. aureus FDA209P: did not differ
  Cross-resistance of S. aureus 5812R: absent

## Nisin (ITSISLCTPGCKTGALMGCNMKTATCHCSIHVSK; not fully specified (some residues, bridges); cysteine pairing not given here; UniProt P13068 24-57, looked up)
S. aureus FDA209P [2]
  MIC: 7.8 µg/mL
S. aureus 5812R [3]; [7]
  MIC: 7.8 µg/mL
S. aureus 5812R [3]
  Change of MIC / resistance of S. aureus 5812R compared to parent strain S. aureus FDA209P: did not differ
  Cross-resistance of S. aureus 5812R: absent

## Ramoplanin
S. aureus FDA209P [4]; passage 1
  The highest concentration of antibiotic allowing growth: 3.12 µg/mL
S. aureus FDA209P [4]; passage 2
  The highest concentration of antibiotic allowing growth: 6.25 µg/mL
S. aureus FDA209P [4]; passage 3
  The highest concentration of antibiotic allowing growth: 6.25 µg/mL
S. aureus FDA209P [4]; passage 4
  The highest concentration of antibiotic allowing growth: 12.5 µg/mL
S. aureus FDA209P [4]; passage 5
  The highest concentration of antibiotic allowing growth: 50 µg/mL
S. aureus FDA209P [4]; passage 6
  The highest concentration of antibiotic allowing growth: 50 µg/mL
S. aureus FDA209P [4]; passage 7
  The highest concentration of antibiotic allowing growth: 50 µg/mL
S. aureus FDA209P [4]; passage 8
  The highest concentration of antibiotic allowing growth: 100 µg/mL
S. aureus FDA209P [4]; passage 9
  The highest concentration of antibiotic allowing growth: 100 µg/mL
S. aureus FDA209P [4]; passage 10
  The highest concentration of antibiotic allowing growth: 100 µg/mL
S. aureus FDA209P [4]; passage 11
  The highest concentration of antibiotic allowing growth: >100 µg/mL
S. aureus FDA209P [4]; passage 12
  The highest concentration of antibiotic allowing growth: >100 µg/mL
S. aureus FDA209P [4]; passage 13
  The highest concentration of antibiotic allowing growth: >100 µg/mL
S. aureus FDA209P [4]; passage 14
  The highest concentration of antibiotic allowing growth: >100 µg/mL
S. aureus FDA209P [4]; passage 15
  The highest concentration of antibiotic allowing growth: >100 µg/mL
S. aureus FDA209P [4]; passage 16
  The highest concentration of antibiotic allowing growth: >100 µg/mL
S. aureus FDA209P [4]; passage 17
  The highest concentration of antibiotic allowing growth: >100 µg/mL
S. aureus FDA209P [4]; passage 18
  The highest concentration of antibiotic allowing growth: >100 µg/mL
S. aureus FDA209P [4]; passage 19
  The highest concentration of antibiotic allowing growth: >100 µg/mL
S. aureus FDA209P [4]; passage 20
  The highest concentration of antibiotic allowing growth: >100 µg/mL
S. aureus FDA209P [4]; serial passages with sub-inhibitory concentrations
  Number of passages within which resistance was formed: ≤ 10 passages
S. aureus FDA209P [2]
  MIC: 3.12 µg/mL
S. aureus 5812R [3]; [7]
  MIC: 3.12 µg/mL
S. aureus 5812R [3]
  Change of MIC / resistance of S. aureus 5812R compared to parent strain S. aureus FDA209P: did not differ
  Cross-resistance of S. aureus 5812R: absent
